Data taken from paper PMC10011156, “Characterization of a highly conserved MUC5B-degrading protease, MdpL, from Limosilactobacillus fermentum” (Frontiers in Microbiology, 2023).

What follows are molecules tested against T1, MdpL (Mucin degrading protease from Limosilactobacillus); putative O-sialoglycoprotein endopeptidase (OSGP) (Limosilactobacillus fermentum, UniProt B2GAG0) (assay: Etanercept hydrolysis, SDS-PAGE with densitometry). Details: inhibitor concentration per manufacturer, not given.
T1 construct: gene tsaD; C-terminal Gly-Ser-Gly linker and 6xHis tag kept
T1 sequence (B2GAG0 1-344): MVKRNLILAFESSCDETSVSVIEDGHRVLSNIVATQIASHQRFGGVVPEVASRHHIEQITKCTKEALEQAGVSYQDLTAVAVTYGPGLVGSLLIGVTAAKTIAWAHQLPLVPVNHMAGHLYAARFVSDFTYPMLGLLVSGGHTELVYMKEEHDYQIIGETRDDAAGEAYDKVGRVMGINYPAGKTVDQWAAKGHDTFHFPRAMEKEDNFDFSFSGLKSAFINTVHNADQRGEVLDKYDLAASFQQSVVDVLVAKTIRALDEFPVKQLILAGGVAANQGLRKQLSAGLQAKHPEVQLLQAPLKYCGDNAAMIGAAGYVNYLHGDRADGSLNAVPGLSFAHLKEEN
Assay type: biochemical

SMILES | inhibition level (%)
NCCc1ccc(S(=O)(=O)F)cc1 [AEBSF] | AEBSF, ALLN, Antipain, Chymostatin, E64, Leupeptin, and Phosphoramidon completely inhibited the MdpL activity
CC(C)C[C@H](NC(=O)[C@@H](O)[C@H](N)Cc1ccccc1)C(=O)O [Bestatin] | Bestatin, and PMSF had a moderate inhibitory effect
CC(C)C[C@H](NC(=O)[C@@H]1O[C@H]1C(=O)O)C(=O)NCCCCNC(=N)N [E64] | AEBSF, ALLN, Antipain, Chymostatin, E64, Leupeptin, and Phosphoramidon completely inhibited the MdpL activity
CC(C)C[C@H](NP(=O)(O)O[C@@H]1O[C@@H](C)[C@H](O)[C@@H](O)[C@H]1O)C(=O)N[C@@H](Cc1c[nH]c2ccccc12)C(=O)O [Phosphoramidon] | AEBSF, ALLN, Antipain, Chymostatin, E64, Leupeptin, and Phosphoramidon completely inhibited the MdpL activity
